Paper PMC4476799, “Englerin A Agonizes the TRPC4/C5 Cation Channels to Inhibit Tumor Cell Line Proliferation” (PLoS ONE, 2015)
Where two headings read alike, the source gives them in different places.

Tested on: cancer cell lines from the cancer cell line encyclopedia (CCLE)
Assay: Cell line profiling (CLiP) proliferation experiment
Type: cell-based
Settings: for IC50: read-out: Crossing Point; for EC50: read-out: Inflection Point
Experimental: Compound profiling experiment and data analysis was performed as previously described. Data was imported and plotted using the Tibco Spotfire DXP application. Lines were categorized as sensitive, intermediate and refractory as follows: Amax<-40 & Inflection Point <2 ~ Sensitive, Amax>-20 & Inflection Point >10 ~ Refractory, all else were called Intermediate. Cancer Cell line HG-U133 Plus 2 data was processed and normalized as described. […] Five sets of refractory cell lines were generated from the pool of refractory cell lines trying to match the lineage composition of the set of sensitive cell lines. The limma package was used as previously described to perform the statistical comparison.

[1] = HT115, cell line HT115, large_intestine
[2] = Homo sapiens, 8-MG-BA, cell line 8-MG-BA, central_nervous_system, astrocytoma_Grade_IV
[3] = Homo sapiens, 769-P, cell line 769-P, kidney, clear_cell_renal_cell_carcinoma
[4] = Homo sapiens, A101D, A101D cells
[5] = Homo sapiens, A101D, cell line A101D, skin, NS
[6] = Homo sapiens, A204, cell line A-204, soft_tissue, NS
[7] = Homo sapiens, A2780, cell line A2780, ovary, adenocarcinoma
[8] = Homo sapiens, ABC-1, ABC-1 cells
[9] = Homo sapiens, ABC-1, cell line ABC-1, lung, non_small_cell_carcinoma
[10] = Homo sapiens, AMO1, cell line AMO-1, haematopoietic_and_lymphoid_tissue, plasma_cell_myeloma
[11] = Homo sapiens, BFTC-909, cell line BFTC-909, kidney, NS
[12] = Homo sapiens, BL-41, cell line BL-41, haematopoietic_and_lymphoid_tissue, Burkitt_lymphoma
[13] = Homo sapiens, BV-173, cell line BV-173, haematopoietic_and_lymphoid_tissue, blast_phase_chronic_myeloid_leukaemia
[14] = Homo sapiens, CAKI-1, cell line Caki-1, kidney, clear_cell_renal_cell_carcinoma
[15] = Homo sapiens, CAL-54, CAL-54, kidney, renal_cell_carcinoma
[16] = Homo sapiens, CAL-54, CAL-54 cells
[17] = Homo sapiens, CAL-85-1, CAL-85-1, breast, NS
[18] = Homo sapiens, CAL-85-1, CAL-85-1 cells
[19] = Homo sapiens, CAL-120, cell line CAL-120, breast, NS
[20] = Homo sapiens, CAPAN-1, Capan-1, pancreas, ductal_carcinoma
[21] = Homo sapiens, CFPAC-1, CFPAC-1, pancreas, ductal_carcinoma

Structure (SMILES): CC(C)[C@@]12C[C@@H](O)[C@@](C)(O1)[C@@H]1CC[C@@H](C)[C@H]1[C@@H]2OC(=O)/C=C/c1ccccc1 [Englerin B]
- IC50 (HEC-50B, cell line HEC-50B): > 30 µM
- IC50 (HEC-251, cell line HEC-251, endometrium): > 30 µM
- IC50 (HEC-251, cell line HEC-251): > 30 µM
- IC50 (HEY A8, cell line Hey-A8, ovary): > 30 µM
- IC50 (HEY A8, cell line Hey-A8): > 30 µM
- IC50 [1]: 19.2 µM
- EC50 [1]: 12.3 µM
- IC50 [2]: 26.5 µM
- EC50 [2]: 15.8 µM
- IC50 (Homo sapiens, 22Rv1, cell line 22Rv1, prostate, NS): 27.2 µM
- IC50 (Homo sapiens, 769-P, 769-P (kidney)): > 30 µM
- IC50 [3]: > 30 µM
- EC50 [3]: 20.5 µM
- IC50 (Homo sapiens, 786-0, cell line 786-O, kidney, clear_cell_renal_cell_carcinoma): > 30 µM
- IC50 (Homo sapiens, 786-0, cell line 786-O): > 30 µM
- IC50 (Homo sapiens, 1321-N1, cell line 1321N1 (central_nervous_system, astrocytoma)): > 30 µM
- IC50 (Homo sapiens, 1321-N1, cell line 1321N1, central_nervous_system, astrocytoma): > 30 µM
- IC50 (Homo sapiens, 8305C, 8305C (thyroid)): > 30 µM
- IC50 (Homo sapiens, 8305C, cell line 8305C, thyroid, anaplastic_carcinoma): > 30 µM
- IC50 [4]: > 30 µM
- EC50 [4]: 19.2 µM
- IC50 [5]: > 30 µM
- EC50 [5]: 19.2 µM
- IC50 (Homo sapiens, A 172, cell line A172, central_nervous_system, astrocytoma_Grade_IV): > 30 µM
- IC50 (Homo sapiens, A 172, cell line A172): > 30 µM
- IC50 (Homo sapiens, A204, cell line A-204): > 30 µM
- IC50 [6]: > 30 µM
- EC50 [6]: 17.4 µM
- IC50 (Homo sapiens, A253, cell line A-253, salivary_gland, mucoepidermoid_carcinoma): 14.7 µM
- IC50 (Homo sapiens, A498, cell line A-498, kidney, renal_cell_carcinoma): 12.5 µM
- IC50 (Homo sapiens, A549, cell line A549, lung, adenocarcinoma): 23.2 µM
- IC50 (Homo sapiens, A673, A-673 cells): > 30 µM
- IC50 (Homo sapiens, A673, cell line A-673, bone, NS): > 30 µM
- IC50 (Homo sapiens, A2058, cell line A2058, skin, NS): 18.5 µM
- EC50 (Homo sapiens, A2780, A2780 cells): 12.1 µM
- IC50 [7]: 14.9 µM
- EC50 [7]: 12.1 µM
- IC50 (Homo sapiens, A-375, A-375 cells): > 30 µM
- IC50 (Homo sapiens, A-375, cell line A-375, skin, NS): > 30 µM
- IC50 [8]: > 30 µM
- EC50 [8]: 23.7 µM
- IC50 [9]: > 30 µM
- EC50 [9]: 23.7 µM
- IC50 (Homo sapiens, ACHN, ACHN cells): > 30 µM
- IC50 (Homo sapiens, ACHN, cell line ACHN, kidney, renal_cell_carcinoma): > 30 µM
- EC50 (Homo sapiens, AMO1, AMO-1 cells): 12.2 µM
- IC50 [10]: 13.2 µM
- EC50 [10]: 12.2 µM
- IC50 (Homo sapiens, AN3-CA, cell line AN3 CA, endometrium, adenocarcinoma): 21.1 µM
- IC50 (Homo sapiens, AN3-CA, cell line AN3 CA): 21.1 µM
- IC50 (Homo sapiens, AU565, cell line AU565, breast, NS): 20.5 µM
- IC50 [11]: > 30 µM
- EC50 [11]: 0.1 µM
- IC50 (Homo sapiens, BFTC-909, cell line BFTC-909): > 30 µM
- EC50 (Homo sapiens, BL-41, BL-41 cells): 16.6 µM
- IC50 [12]: 17.2 µM
- EC50 [12]: 16.6 µM
- IC50 (Homo sapiens, BT-20, BT-20 cells): > 30 µM
- IC50 (Homo sapiens, BT-20, cell line BT-20, breast, ductal_carcinoma): > 30 µM
- IC50 (Homo sapiens, BT-549, cell line BT-549, breast, ductal_carcinoma): 19.5 µM
- EC50 (Homo sapiens, BV-173, BV-173 cells): 12.5 µM
- IC50 [13]: 12.8 µM
- EC50 [13]: 12.5 µM
- IC50 (Homo sapiens, BXPC-3, cell line BxPC-3, pancreas, ductal_carcinoma): 26.1 µM
- IC50 (Homo sapiens, C32, C32 cells): > 30 µM
- IC50 (Homo sapiens, CAKI-1, Caki-1 (kidney)): > 30 µM
- IC50 [14]: > 30 µM
- EC50 [14]: 13.3 µM
- IC50 (Homo sapiens, CAKI-2, Caki-2 (kidney)): > 30 µM
- IC50 (Homo sapiens, CAKI-2, cell line Caki-2, kidney, clear_cell_renal_cell_carcinoma): > 30 µM
- IC50 (Homo sapiens, CAL-51, CAL-51 cells): > 30 µM
- IC50 (Homo sapiens, CAL-51, cell line CAL-51, breast, NS): > 30 µM
- IC50 [15]: > 30 µM
- EC50 [15]: 15.7 µM
- IC50 [16]: > 30 µM
- EC50 [16]: 15.7 µM
- IC50 [17]: > 30 µM
- EC50 [17]: 27.8 µM
- IC50 [18]: > 30 µM
- EC50 [18]: 27.8 µM
- EC50 (Homo sapiens, CAL-120, CAL-120 cells): 11.6 µM
- IC50 [19]: 22.3 µM
- EC50 [19]: 11.6 µM
- IC50 (Homo sapiens, CAMA-1, CAMA-1 (breast)): > 30 µM
- IC50 (Homo sapiens, CAMA-1, CAMA-1, breast, NS): > 30 µM
- IC50 (Homo sapiens, CAPAN-1, Capan-1 (pancreas)): > 30 µM
- IC50 [20]: > 30 µM
- EC50 [20]: 3.35 µM
- IC50 (Homo sapiens, CCRF-CEM, CCRF-CEM cells): > 30 µM
- IC50 (Homo sapiens, CCRF-CEM, haematopoietic_and_lymphoid_tissue, acute_lymphoblastic_T_cell_leukaemia): > 30 µM
- IC50 [21]: 29.7 µM
- EC50 [21]: 12.7 µM
